Measurements taken from US20090203716A1, “Pyrimidine low molecular weight ligands for modulating hormone receptors” (The Government of the United States of America as …, priority 2006, published 2009).
pEC50, pIC50: −log10 of the molar value.

Key:
human LHCG receptor = target: T1, human LHCG receptor (Homo sapiens, UniProt P22888); assay: intracellular cAMP accumulation, agonism at LHCGR stably expressed in HEK EM 293 cells; format: cell-based
T1 construct: expressed in transfected cells
Procedure: (§1) With reference to Table 1, exemplary disclosed compounds were evaluated against human TSH receptor and human LHCG receptor that were stably expressed in HEK 293 EM cells as previously described by Libert et al. (Biochem. Biophys. Res. Commun. 1989, 165, 1250-1255); and by Schulz et al. (Mol. Endocrinol. 1999, 13, 181-190). Cell surface expression of TSH receptor and LHCG receptor were determined via FACS analysis (Kleinau, G.; Jäschke, H.; Neumann, S.; Lättig, S.; Paschke, R.; Krause, G. J. Biol. Chem. 2004, 279, 51590-51600).
Following aspiration of the medium after incubation with compounds, cells were lysed using lysis buffer 1 of the cAMP Biotrak Enzymeimmunoassay (EIA) System (Amersham Biosciences). The cAMP content of the cell lysate was determined using the manufacturer's protocol. […] The potency (EC50) was obtained from dose response curves (0-100 μM compound) by data analysis with GraphPad Prism 4 for Windows. […] The data are presented as mean±SEM of two independent experiments, each performed in duplicate.
(§2) Transiently transfected cells were cultured for 48 hours before the cAMP assay. HEK-EM 293 cells stably expressing TSHR, LHCGR or FSHR were seeded into 24-well plates with a density of 2.2×10^5 cells/well 24 hours before the cAMP assay. After removal of growth medium, cells were incubated for 1 hour in HBSS (Cellgro) with 10 mM HEPES (Cellgro) containing 1 mM 3-isobutyl-1-methylxanthine (IBMX) (Sigma) and the ligand of interest in a humidified 5% CO2 incubator at 37° C. The intracellular cAMP content was determined with the cAMP Biotrak Enzymeimmunoassay (EIA) System (GE Healthcare). Data were analyzed using GraphPad Prism 4 for Windows. Receptor expression was measured as described in Jaschke et al., J Biol Chem 281:9841-9844.

human TSH receptor = target: T2, human TSH receptor (Homo sapiens, UniProt P16473); assay: intracellular cAMP accumulation, agonism at TSHR stably expressed in HEK EM 293 cells; format: cell-based
T2 construct: expressed in transfected cells
T2 sequence (P16473 21-764): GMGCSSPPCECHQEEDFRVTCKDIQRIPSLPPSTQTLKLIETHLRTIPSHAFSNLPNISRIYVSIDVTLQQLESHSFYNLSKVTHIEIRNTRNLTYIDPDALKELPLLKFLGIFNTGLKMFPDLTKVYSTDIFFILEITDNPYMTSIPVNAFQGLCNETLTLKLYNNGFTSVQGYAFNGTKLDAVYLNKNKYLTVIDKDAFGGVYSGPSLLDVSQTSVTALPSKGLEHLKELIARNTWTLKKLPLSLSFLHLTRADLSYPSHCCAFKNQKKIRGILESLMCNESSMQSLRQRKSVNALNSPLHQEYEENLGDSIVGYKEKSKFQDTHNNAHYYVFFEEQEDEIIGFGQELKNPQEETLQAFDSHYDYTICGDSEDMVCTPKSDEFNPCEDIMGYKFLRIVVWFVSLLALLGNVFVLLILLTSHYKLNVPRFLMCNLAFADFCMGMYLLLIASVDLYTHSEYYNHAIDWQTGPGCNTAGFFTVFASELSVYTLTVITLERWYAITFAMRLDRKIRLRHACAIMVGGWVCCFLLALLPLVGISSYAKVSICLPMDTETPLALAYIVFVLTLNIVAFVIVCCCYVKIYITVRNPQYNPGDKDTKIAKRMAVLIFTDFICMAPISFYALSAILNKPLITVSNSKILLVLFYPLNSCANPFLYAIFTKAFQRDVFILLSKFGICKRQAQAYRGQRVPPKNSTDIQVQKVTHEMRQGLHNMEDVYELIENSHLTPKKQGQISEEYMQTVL
Procedure: as §1, with “51590-51600). Agonism of compounds 3-20 were determined via measurement of intracellular cyclic AMP accumulation. […] For example, […] certain compounds disclosed herein exerted no discernible effect on the FSH receptor.” for “51590-51600).”
Cells were cultured for 48 h in 24-well plates before incubation for 1 h in serum-free DMEM containing 1 mM 3-isobutyl-1-methylxanthine (IBMX) (SIGMA) and bovine TSH (1.8 μM) (SIGMA) or human LH (1000 ng/ml) (Dr. A. Parlow, NIDDK National Hormone and Pituitary Program) or compounds 3-19 (0-100 μM) in a humidified 5% CO2 incubator. Following aspiration of the medium after incubation with compounds, cells were lysed using lysis buffer 1 of the cAMP Biotrak Enzymeimmunoassay (EIA) System (Amersham Biosciences). The cAMP content of the cell lysate was determined using the manufacturer's protocol. The efficacy of receptor activation by small molecule modulators is expressed as % of maximum response of LHCG receptor or TSH receptor to LH or TSH, respectively. The potency (EC50) was obtained from dose response curves (0-100 μM compound) by data analysis with GraphPad Prism 4 for Windows. With reference to FIG. 1, intracellular cAMP production was determined in response to 100 μM of each compound and is expressed as % of maximum response of TSHR/LHCGR to TSH (100 mU/ml)/LH (1000 ng/ml). The data are presented as mean±SEM of two independent experiments, each performed in duplicate.
as §2

TSHR mutant M9 = assay: cAMP production in HEK-EM 293 cells transiently expressing TSHR mutant M9; format: cell-based, human
Procedure: HEK-EM 293 cells were grown in Dulbecco's modified Eagle's Medium (DMEM) supplemented with 10% fetal bovine serum, 100 units/ml penicillin and 10 μg/ml streptomycin (Life Technologies Inc.) at 37° C. in a humidified 5% CO2 incubator. Cells were transiently transfected with wild type TSHR and mutant receptors in 24-well plates (7.5×10^4 cells per well) with 0.4 μg DNA/well using FuGENE™ 6 reagent (Roche) according to the manufacturer's protocol.
The M9 mutant is described in Jaschke et al., J Biol Chem 281:9841-9844. The Y7.42A mutant was introduced into hTSHR-pcDNA3.1 via the QuickChange XL Site-Directed Mutagenesis kit (Stratagene). The construct was verified by sequencing (MWG Biotech).
as §2, with “After removal of growth medium, cells were incubated for 1 hour in HBSS (Cellgro) with 10 mM HEPES (Cellgro) containing 1 mM 3-isobutyl-1-methylxanthine (IBMX) (Sigma) and the ligand of interest in a humidified 5% CO2 incubator at 37° C.” left out

LHCG receptor = LHCG receptor (Mus musculus, UniProt P30730); conditions: ovulation induction model; cited from earlier work
LHCG receptor, sequence (P30730 27-700): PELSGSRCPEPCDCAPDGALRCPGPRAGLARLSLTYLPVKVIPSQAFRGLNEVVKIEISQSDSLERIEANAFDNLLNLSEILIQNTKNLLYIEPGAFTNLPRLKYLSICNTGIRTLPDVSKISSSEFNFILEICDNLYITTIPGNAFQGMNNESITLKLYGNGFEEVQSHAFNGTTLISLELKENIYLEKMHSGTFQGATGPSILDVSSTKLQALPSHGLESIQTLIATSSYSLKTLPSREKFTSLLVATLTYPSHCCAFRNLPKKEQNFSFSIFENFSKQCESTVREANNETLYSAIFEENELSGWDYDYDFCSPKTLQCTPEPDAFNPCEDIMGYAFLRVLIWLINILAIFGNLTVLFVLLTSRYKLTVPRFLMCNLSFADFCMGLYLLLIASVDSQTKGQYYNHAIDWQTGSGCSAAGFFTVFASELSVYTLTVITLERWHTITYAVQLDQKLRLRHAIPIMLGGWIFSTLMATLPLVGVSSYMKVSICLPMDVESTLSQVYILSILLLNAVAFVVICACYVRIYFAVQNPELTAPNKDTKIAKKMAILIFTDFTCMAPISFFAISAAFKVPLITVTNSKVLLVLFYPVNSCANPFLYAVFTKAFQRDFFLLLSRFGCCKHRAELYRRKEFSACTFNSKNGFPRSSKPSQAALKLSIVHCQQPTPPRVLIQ

TSHR [1] = target: T3, TSHR (Homo sapiens, UniProt P16473); assay: inhibition of TSH-mediated cAMP response in HEK-EM 293 cells stably expressing TSHR; format: cell-based; set-up: expressed in transfected cells
T3 sequence (P16473 21-764): as the sequence (P16473 21-764) above
Procedure: as §2
The TSH-mediated cAMP response of TSHR was inhibited by a maximum of 70.8±5.5% at 30 μM compound 52. […] Compound 52 has no activity at FSHR.
To exclude the possibility that compound 52 might be acting independently of TSHR by building aggregates with TSH, thereby inhibiting the TSH-induced response, tests were conducted for a possible aggregation between these two ligands. Compound 52 and TSH were preincubated for up to 15 minutes before addition to HEK-EM 293 cells stably expressing TSHR. […] There was no difference in the antagonistic effect whether TSH and compound 52 were preincubated together or not (data not shown) thereby excluding the possibility that its effect was caused by aggregation with TSH.

TSHR [2] = target: T3, TSHR; assay: TsAb (Graves' disease sera)-stimulated cAMP accumulation in HEK-EM 293 cells expressing TSHR; format: cell-based; set-up: expressed in transfected cells
Procedure: as §2
To assess the therapeutic potential of compound 52 in patients with Graves' disease, its ability to inhibit TSHR activation by TsAbs was tested. First, four patient sera (GD 5, 19, 29, 30) were used at a dilution of 1:50 to test the effect of compound 52 on TsAb-stimulated cAMP accumulation in HEK-EM 293 cells expressing TSHR. All four sera increased cAMP accumulation, but to different extents (FIG. 6). To assess inhibition, cAMP accumulation was measured in response to TsAbs in the presence of 30 μM compound 52. Indeed, compound 52 reduced TsAb-mediated responses of the different sera (set at 100% for each patient's serum) by 28% to 79% (FIG. 6).

T1 sequence (P22888 27-699): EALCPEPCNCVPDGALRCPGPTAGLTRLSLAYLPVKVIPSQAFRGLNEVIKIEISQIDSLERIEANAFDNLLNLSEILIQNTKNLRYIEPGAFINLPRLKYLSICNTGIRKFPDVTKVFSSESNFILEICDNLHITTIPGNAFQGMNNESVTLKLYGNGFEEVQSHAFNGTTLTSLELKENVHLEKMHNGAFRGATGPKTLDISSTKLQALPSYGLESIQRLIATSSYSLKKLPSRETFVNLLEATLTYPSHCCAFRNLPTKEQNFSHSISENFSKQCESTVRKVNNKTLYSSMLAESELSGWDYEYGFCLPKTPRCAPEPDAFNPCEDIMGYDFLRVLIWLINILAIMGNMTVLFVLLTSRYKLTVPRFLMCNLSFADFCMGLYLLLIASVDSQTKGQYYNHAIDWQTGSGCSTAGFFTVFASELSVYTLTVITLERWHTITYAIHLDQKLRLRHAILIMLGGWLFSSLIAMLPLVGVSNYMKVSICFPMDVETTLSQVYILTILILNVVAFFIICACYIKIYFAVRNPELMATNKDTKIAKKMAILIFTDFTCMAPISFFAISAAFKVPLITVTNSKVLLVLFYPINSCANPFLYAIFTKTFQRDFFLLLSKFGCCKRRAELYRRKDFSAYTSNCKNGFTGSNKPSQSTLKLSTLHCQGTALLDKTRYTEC

| SMILES | % Max. Resp. @ LHCGR in μM (human LHCG receptor; % of maximum response of LHCGR to LH (1000 ng/ml)) [%] | EC50 (human LHCG receptor; read-out: EC50 (LHCGR) in μM [95% C.I.], cAMP, HEK EM 293 cells, dose response 0-100 μM compound) [µM] | partial agonism, % of TSH activity at TSHR (human TSH receptor) [%] | % Max. Resp. @ TSHR in μM (human TSH receptor; % of maximum response of TSHR to TSH (100 mU/ml), * estimated maximum response at 100 μM compound) [%] | agonist activity at TSHR (human TSH receptor; cAMP) | pEC50 (human TSH receptor; read-out: EC50 (TSHR) in μm [95% C.I.], cAMP, HEK EM 293 cells, dose response 0-100 μM compound, ** estimated EC50, no plateau) | agonism at M9 (TSHR mutant M9) | in vivo efficacy for LHCG receptor (LHCG receptor) | inhibition of TSH stimulation of TSH receptor signaling (TSHR [1]) [%] | pIC50 (TSHR [1]; with EC50 dose of TSH) | inhibition of TSH receptor activation by antibodies (IgG) from Graves' disease sera (TSHR [2]) |
| --- | --- | --- | --- | --- | --- | --- | --- | --- | --- | --- | --- |
| COc1cccc(-c2nc(SC)nc3sc(C(=O)NC(C)(C)C)c(N)c23)c1 [Compound 3, N-tert-butyl-5-amino-4-(3-methoxyphenyl)-2-(methylthio)thieno[2,3-d]pyrimidine-6-carboxamide, reference compound] | 45.8 ± 5.9 | 0.3 | 23 | 23.4 ± 3.6 | partial agonist | 5.19 | full agonist | demonstrated | 35 | 4.96 |  |
| CC/C=C/c1ccc(-c2nc(SC)nc3sc(C(=O)NC(C)(C)C)c(N)c23)cc1 [N-tert-butyl-5-amino-4-(4-((E)-but-1-enyl)phenyl)-2-(methylthio)thieno[2,3-d]pyrimidine-6-carboxamide] |  |  |  |  |  |  |  |  |  |  | inhibit |
